Laboratory results taken from patent US11787835B2, “C19 scaffolds and steroids and methods of use and manufacture thereof” (Trustees of Dartmouth College, priority 2018, dated 2023).

Key:
[1] = tested on: DU-145 prostate cancer cells (endogenous ERβ); assay: Alkaline phosphatase activity in DU-145 prostate cancer cells; type: cell-based, human; conditions: DU-145 cells, 24 hours, 5 μM, FIG. 2
Description: FIG. 2 is a bar graph showing alkaline phosphatase activity in human DU-145 prostate cancer cells (17β-estradiol, Compound 100, and Compound 101 were evaluated at 5 μM).
The DU-145 prostate cancer cell line only expresses ERβ and can be used as a model to examine the activation of ERβ in the absence of any potential confounding signal driven by ERα. Alkaline phosphatase (ALP) expression is induced in an ER-dependent manner and has been used to characterize the activity of synthetic ER agonists and antagonists.
In order to examine the ability of Compound 100 and Compound 101 to activate ERβ in the context of a cell line expressing endogenous ERβ, DU-145 cells were treated for 24 hours with either 17β-estradiol, Compound 100, or Compound 101 and ALP activity derived from the cells was examined.

[2] = tested on: primary glioma tumor cells from patients; assay: Growth of primary glioma tumor cells from patients; type: cell-based, human
From the text: The present disclosure also relates to the use of such compounds as biologically active (e.g., therapeutic) components in, for example, pharmaceutical compositions and/or directly as human and/or animal therapeutics and medicines. In certain embodiments, the compounds are ERβ selective agonists and/or may be used to treat or prevent conditions, disorders, or diseases such as cancer (e.g., breast cancer, prostate cancer, ovarian cancer, acute myeloid leukemia, and glioma, among others) or neurodegeneration. Currently there is no widely applicable cure for primary brain tumors.

[3] = tested on: glioblastoma cell lines; assay: MTT cell viability assay in glioblastoma cell lines; type: cell-based, human
Description: (§1) To determine the biological effect of Compound 100 and Compound 101, human glioblastoma-derived cell lines U251 and U87 were treated with varying concentrations of Compound 100, Compound 101, temazolomide (TMZ; a standard of care chemotherapeutic agent), or vehicle-toxicity control, dimethylsulfoxide (DMSO) used at final volumes that were identical to those used to attain all concentrations tested of Compound 100 and Compound 101.

[4] = tested on: U251 and U87 cells; assay: Incucyte live cell imaging of morphological changes; type: cell-based, human; conditions: over five days, FIG. 3D
Description: FIG. 3D depicts phase-contrast images using Incucyte for live cell tracking of U251 and U87 cells in response to treatment with Compound 100, Compound 101, TMZ, and vehicle control DMSO. Live cells were tracked and imaged for 96 hours (data not shown). Scale bar=300 μm. All data in FIG. 3A-3D are representative of four independent experiments and four replicates of each treatment condition were analyzed per experiment.
(§2) In order to elucidate the mechanism of this cell death, glioblastoma cells treated for 24 hours with Compound 100, Compound 101, TMZ, or DMSO control were analyzed for early and late apoptosis markers (Annexin V and 7-Aminoactinomycin D) by FACS analyses. […] Additionally, over a period of five days, morphological changes in U251 and U87 cells treated with Compound 100 and Compound 101 were tracked using the Incucyte live cell imaging system.

[5] = tested on: U251 and U87 cells; assay: Growth inhibition and viable cell counts of glioblastoma cell lines; type: cell-based, human; conditions: for inhibition of glioma cell growth (IC50), fold lower concentration compared to TMZ: after 24 hours, FIG. 3A
Description: FIG. 3A-3B are line graphs depicting (A) dose dependent growth inhibition of U251 and U87 cells treated with Compound 100, Compound 101, TMZ, and vehicle control DMSO (n=4) and (B) viable cell counts of U251 and U87 cells treated with Compound 100, Compound 101, TMZ, and vehicle control DMSO determined every 24 hours for 96 hours (n=4)
as §1

[6] = tested on: U251 and U87 cells; assay: Annexin V/7-AAD apoptosis FACS analysis; type: cell-based, human; conditions: 24 hours, Annexin V and 7-AAD, FIG. 3C
Description: FIG. 3C is a flow cytometric analysis of U251 and U87 co-stained with Annexin V-FITC/7-AAD after treatment with Compound 100, Compound 101, TMZ, and vehicle control DMSO (n=4).
as §2

[7] = target: ERβ (Homo sapiens, UniProt Q92731); assay: ERβ agonist assay (functional activity at estrogen receptors); type: cell-based
Chain of ERβ (Q92731 whole entry, species assumed): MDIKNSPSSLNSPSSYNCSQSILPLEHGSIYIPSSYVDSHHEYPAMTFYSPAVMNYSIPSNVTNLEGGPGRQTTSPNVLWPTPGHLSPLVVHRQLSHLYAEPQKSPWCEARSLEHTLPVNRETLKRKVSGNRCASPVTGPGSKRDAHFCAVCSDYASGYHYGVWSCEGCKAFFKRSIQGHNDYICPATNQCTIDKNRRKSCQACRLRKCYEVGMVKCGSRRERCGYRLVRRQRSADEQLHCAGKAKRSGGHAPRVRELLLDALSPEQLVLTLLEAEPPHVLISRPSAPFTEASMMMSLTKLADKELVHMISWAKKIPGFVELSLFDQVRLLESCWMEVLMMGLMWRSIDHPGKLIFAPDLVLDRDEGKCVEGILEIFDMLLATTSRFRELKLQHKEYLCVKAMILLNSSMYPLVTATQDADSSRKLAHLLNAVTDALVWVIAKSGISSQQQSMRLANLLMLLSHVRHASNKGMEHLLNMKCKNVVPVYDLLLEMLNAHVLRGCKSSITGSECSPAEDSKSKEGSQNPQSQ
Description: FIG. 1 is a set of line graphs showing the results of ERβ and ERα agonist assays for Compounds 100 and 101.
Compounds 100 and 101 were evaluated for their functional activity at estrogen receptors (both ERα and ERβ). 17β-estradiol was used as a control, as it is appreciated to be a potent agonist of both ERα and ERβ.

[8] = tested on: established tumors; assay: In vivo growth of established tumors; conditions: initial studies
From the text: In comparison to 17β-estradiol, Compound 100 and Compound 101 have a unique profile for selective agonism of ERβ (FIG. 1).

C[C@]12CC[C@@H]3c4ccc(O)cc4CC[C@H]3[C@@H]1CC[C@@H]2O [17β-estradiol, reference compound]
induction of ALP activity [1]: effective in inducing ALP activity

C[C@]12CC[C@@]3(C)C(=C1C[C@@H](O)C2)CCc1cc(O)ccc13 [Compound 100, (9S,13R,16S)-9,13-dimethyl-7,9,11,12,13,15,16,17-octahydro-6H-cyclopenta[α]phenanthrene-3,16-diol]
growth of primary glioma tumor cells from patients [2]: inhibit growth | growth of glioblastoma cell lines (MTT) [3]: significantly reduced the growth of glioblastoma cell lines in a dose-dependent manner | morphological changes (adherence, cellular integrity) [4]: Increased loss of adherence and cellular integrity | inhibition of glioma cell growth (IC50), fold lower concentration compared to TMZ [5]: 50 fold | viability and proliferation of glioblastoma lines ([5]; assessed every 24 hours for 5 days, compared to TMZ or DMSO, FIG. 3B): reduced viability and the resulting proliferation of glioblastoma lines in a dose dependent manner | induction of apoptosis, fold higher than TMZ or DMSO controls [6]: 7 fold | type of ERβ agonism [7]: full agonist | growth of established tumors in vivo [8]: reduces the growth of established tumors | induction of ALP activity [1]: effective at inducing ALP to levels comparable to 17β-estradiol

C[C@@]12CC[C@]3(C)C(=C1C[C@H](O)C2)CCc1cc(O)ccc13 [Compound 101, (9R,13S,16R)-9,13-dimethyl-7,9,11,12,13,15,16,17-octahydro-6H-cyclopenta[a]phenanthrene-3,16-diol]
inhibition of glioma cell growth (IC50), fold lower concentration compared to TMZ [5]: 50 fold | induction of apoptosis, fold higher than TMZ or DMSO controls [6]: 7 fold
